Measurements reported in patent US9018244B2, “Benzopyran compounds, compositions and uses thereof” (Olema Pharmaceuticals, Inc., priority 2011, dated 2015).

Tests used:
[1] = daily oral dose of 40 mg in women; cited from earlier work
[2] = molecular target: T1, estrogen receptor alpha (ERα) (Homo sapiens, UniProt P03372); assay: ERα expression by immunoblot after anti-estrogen treatment; format: cell-based; conditions: 100 nM anti-estrogen, 22-24 hours, serum-free medium; MCF-7 breast cells and ECC-1 endometrial cells
T1 construct: endogenous in cells
T1 sequence (P03372 1-595): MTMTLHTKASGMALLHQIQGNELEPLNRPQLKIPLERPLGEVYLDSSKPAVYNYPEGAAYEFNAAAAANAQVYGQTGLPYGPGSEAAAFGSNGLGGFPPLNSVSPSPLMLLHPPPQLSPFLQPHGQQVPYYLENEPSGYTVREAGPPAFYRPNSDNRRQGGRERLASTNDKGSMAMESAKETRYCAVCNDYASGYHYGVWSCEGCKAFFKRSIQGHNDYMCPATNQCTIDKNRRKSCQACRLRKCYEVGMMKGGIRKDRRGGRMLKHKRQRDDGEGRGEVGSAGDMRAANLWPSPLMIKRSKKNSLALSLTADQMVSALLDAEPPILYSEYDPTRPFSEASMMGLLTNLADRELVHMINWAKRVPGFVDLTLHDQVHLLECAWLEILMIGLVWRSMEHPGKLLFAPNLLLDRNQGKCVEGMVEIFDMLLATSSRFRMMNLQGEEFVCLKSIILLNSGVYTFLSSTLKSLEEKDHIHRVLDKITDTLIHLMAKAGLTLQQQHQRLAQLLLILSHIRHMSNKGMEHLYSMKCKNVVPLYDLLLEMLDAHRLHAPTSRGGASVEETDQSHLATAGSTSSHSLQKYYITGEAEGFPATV
Protocol: FIG. 12. […] A) ERα levels in breast cells after treatment with OP-1074 compared to treatment with model anti-estrogens. MCF-7 cells were treated with 100 nM anti-estrogen for 24 hours in serum-free medium and protein extracts immunoblotted with an antibody to ERα (D12, Santa Cruz Biotechnology, Santa Cruz, Calif.). Image is from a single representative experiment and number on top denotes the mean percent ERα expression relative to vehicle from quadruplicate treatments. B) OP-1038 induces degradation of ERα in both MCF-7 breast cells and ECC-1 endometrial cells.
ERα expression was detected in MCF-7 cell lysates treated with 100 nM anti-estrogens in serum-free medium for 22-24 hours and immunoblotted with an antibody specific to ERα as described in the legend to, and depicted in FIG. 12.

[3] = tested on: human MCF-7 breast cancer cells; assay: E2-stimulated proliferation of MCF-7 breast cancer cells; format: cell-based; conditions: MCF-7 cells, 100 pM E2, 6-8 days
Protocol: FIG. 11. […] A) OP-1074 had similar potency to model anti-estrogens in inhibiting E2-stimulated proliferation of breast cells in vitro. MCF-7 cells were treated with anti-estrogens in hormone-depleted medium for 6-8 days in the presence of 100 pM E2. Proliferation was measured using Cyquant fluorescent DNA-binding dye (Invitrogen, Grand Island, N.Y.). Results were from a single representative experiment and reported as the mean percent induction relative to E2 from triplicate treatments, with error bars representing SEM. […] Results were from a single representative experiment and reported as the mean percent induction relative to E2 from triplicate treatments, with error bars representing SEM. IC50's were calculated using the least squares fit method.
Proliferation in MCF-7 was measured using a fluorescent DNA binding dye 6-8 days after treatment in triplicate with anti-estrogens in the presence of 100 pM E2 and as described in the legend to, and depicted in FIG. 11.

[4] = tested on: E2-stimulated estrogen response element (ERE)-regulated reporter gene activity; assay: ERE-tk109-Luc reporter gene assay in MCF-7 cells; format: cell-based, human; conditions: 100 pM E2, 18-22 hours
Protocol: FIG. 10. […] A) OP-1074 had similar potency to model anti-estrogens in the ERE reporter gene assay. MCF-7 cells were transiently transfected with ERE-tk109-Luc and treated with anti-estrogens in hormone-depleted medium in the presence of 100 pM E2 for 22 hours. Results were from a single representative experiment and reported as the mean percent induction relative to E2 from triplicate treatments, with error bars representing SEM. […] Results were from a single representative experiment and reported as the mean percent induction relative to E2 from triplicate treatments, with error bars representing SEM. IC50's were calculated using the least squares fit method.
Compounds of invention are tested for their inhibitory activity of estrogen according to the assay methods described in Hodges-Gallagher, L., Valentine, C. V., El Bader, S. and Kushner, P. J. (2007) “Histone Deacetylase Inhibitors Enhance the Efficacy of Hormonal Therapy Agents on Breast Cancer Cells and Blocks Anti-estrogen-Driven Uterine Cell Proliferation” Breast Cancer Res Treat, November; 105(3):297-309. Specifically, an estrogen-responsive reporter gene (ERE-tk109-Luc) was transiently transfected into MCF-7 cells and treated with anti-estrogens in triplicate in the presence of 100 pM 17β-estradiol (E2) for 18-22 hours. Luciferase activity was normalized to activity of E2 alone and IC50's were calculated using the least squares fit method. This method is also described in legend for FIG. 10.

[5] = tested on: E2-stimulated AP activity in ECC-1 cells; assay: Inhibition of E2-stimulated AP activity in ECC-1 cells (antagonist mode); format: cell-based, human; conditions: in the presence of 500 pM E2
From the text: FIG. 2. Alkaline phosphatase (AP) activity in ECC-1 cells correlates with the uterine wet weight of ovariectomized rats, as reported previously in Scafonas, et al. (*; Scafonas et al. “Agonist-like SERM effects on ER alpha-mediated repression of MMPI promoter activity predict in vivo effects on bone and uterus. J Steroid Biochem Mol. Biol. 2008 110(3-5):197-206) and Labrie, et al. (†; Labrie et al. “The combination of a novel selective estrogen receptor modulator with an estrogen protects the mammary gland and uterus in a rodent model: the future of postmenopausal women's health?” Endocrinology. 2003 144(11):4700-6). ECC-1 cells were treated with 500 pM 17β-estradiol (E2) or 1-5 nM anti-estrogens in hormone-depleted medium for 3 days. Note that the racemic mixture of acolbifene, EM-343, was used in the in vitro AP assay. AP activity was measured by incubating a chromogenic AP substrate, p-nitrophenyl phosphate, at 40° C. for 40 minutes followed by measuring the absorbance at 405 nm. Results were from a single representative experiment and reported as the mean percent induction relative to E2 from triplicate treatments, with error bars representing SEM.
FIG. 6. […] A) Comparison of inhibition of E2-stimulated AP activity of various benzopyran compounds (right) compared to published reference compounds (left). ECC-1 cells were treated with 100 nM anti-estrogens in the presence of 500 pM E2 and AP activity was measured as described in FIG. 2. Note that OP-1038 was statistically different from EM-343 and Gauthier compound Ia (p<0.0001 (exact p values stated in graph), calculated using Student's t-test). Results were from a single representative experiment and reported as the mean percent induction relative to E2 from triplicate treatments, with error bars representing SEM. […] IC50's were calculated using the least squares fit method. *Aragon Compound 28 was statistically different from equivalent dose of OP-1038 (p≦0.01, calculated using Student's t-test). […]
Method for performing the alkaline phosphatase (AP) assay. […] Absorbance was read at 405 nm using a plate spectophotometer. […]

[6] = tested on: rodent uterus, human uterine cells; conditions: cited from earlier work

**Q.** Which “Mean drug exposure of circulating acolbifene” value [1] does the source give for `CC1=C(c2ccc(OC(=O)C(C)(C)C)cc2)[C@H](c2ccc(OCCN3CCCCC3)cc2)Oc2cc(OC(=O)C(C)(C)C)ccc21` [EM800] here?
**A.** The value was 15 ng/mL.

**Q.** Which “Mean drug exposure of circulating acolbifene” value [1] does the source give for `CC1=C(c2ccc(O)cc2)[C@H](c2ccc(OCCN3CCCCC3)cc2)Oc2cc(O)ccc21` [EM-652, (S)-3-(4-hydroxyphenyl)-4-methyl-2-(4-(2-(piperidin-1-yl)ethoxy)phenyl)-2H-chromen-7-ol] here?
**A.** The value was 8.3 ng/mL.

**Q.** What does the source list for `CC1=C(c2ccc(O)cc2)[C@@H](c2ccc(OCCN3CC[C@@H](C)C3)cc2)Oc2cc(O)ccc21` [OP-1075, (2R)-3-(4-hydroxyphenyl)-4-methyl-2-(4-{2-[(3R)-3-methylpyrrolidin-1-yl]ethoxy}phenyl)-2H-chromen-7-ol]?
**A.** Degradation of ERα [2]: degrade the receptor; Antagonism of E2-stimulated proliferation [3]: reduced activity; Antagonism of E2-stimulated ERE-regulated reporter gene activity [4]: reduced activity; Inhibition of E2-stimulated AP activity [5]: reduced activity

**Q.** With `CC12CCC3c4ccc(O)cc4CC(CCCCCCCCC[S+]([O-])CCCC(F)(F)C(F)(F)F)C3C1CCC2O` (stereo not shown) [fulvestrant] as the compound, how does the “Residual estrogen-like action relative to estradiol” value [6] read?
**A.** The value was “almost unmeasurable”.
